The source of these data is the NIST ThermoML archive (doi:10.1021/je050406x).

For data set [1] the following is noted: Crystal; DTA.
A short description of data set [2]: Molar enthalpy of transition or fusion. Particulars: Crystal; DSC.

± gives the expanded uncertainty stated by the source.

Take `O=C1COCCO1` [1,4-dioxan-2-one]: the Normal melting temperature in data set [1] turned out to be 28.26 ± 0.5 °C. Further, in data set [2], the “Molar enthalpy of transition or fusion” value was 15.7 ± 0.38 kJ/mol.
